Literature values as cited in US20170360829A1, “TREATMENT OF VASCULAR ANOMALIES” (GILLIES MCINDOE RESEARCH INSTITUTE, priority 2016, published 2017).

Key:
venous malformation (VM) = conditions: treatment of VM; review by van der Vleuten et al. (ref. 14)
[1] = tested on: several tumoral cell lines

Compound	effective in % of cases (venous malformation (VM))	IC50 relative to cisplatin [1]
CCO [ethanol]	74%	
CCCCCCCCCCCCCCOS(=O)(=O)[O-].[Na+] [sodium tetradecyl sulfate]	86%	
[Pt(dmba)(aza-N1)(dmso)] complex 1		lower IC50 than cisplatin
bleomycin	88%	
polidocanol	82%	
